From PubChem BioAssay (NCI)
Several values for one entry are separate records, joined by “and”; a condition that tells them apart may be missing. Equal values may be shown once.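 48-hour exposure; five concentrations; linearly interpolated endpoints. Here, GI50 denotes the concentration required for 50% inhibition of growth. TGI marks complete inhibition of growth.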

Experiments:
Assay in all cases: inhibition of tumour cell growth, NCI panel, 48 h
COLO 205 colon = tested on: COLO 205 colon
UACC-62 melanoma = tested on: UACC-62 melanoma
HL-60(TB) leukemia = tested on: HL-60(TB) leukemia
NCI-H226 lung = tested on: NCI-H226 lung
SK-MEL-28 melanoma = tested on: SK-MEL-28 melanoma
SF-268 CNS = tested on: SF-268 CNS
A549 NSCLC = tested on: A549 NSCLC
786-0 renal = tested on: 786-0 renal
RPMI-8226 leukemia = tested on: RPMI-8226 leukemia
OVCAR-4 ovarian = tested on: OVCAR-4 ovarian

Structure (SMILES) | GI50 (COLO 205 colon) | TGI (COLO 205 colon) | GI50 (UACC-62 melanoma) | TGI (UACC-62 melanoma) | GI50 (HL-60(TB) leukemia) [µM] | TGI (HL-60(TB) leukemia) | GI50 (NCI-H226 lung) [µM] | TGI (NCI-H226 lung) | GI50 (SK-MEL-28 melanoma) | TGI (SK-MEL-28 melanoma) | GI50 (SF-268 CNS) [µM] | TGI (SF-268 CNS) | GI50 (A549 NSCLC) [µM] | TGI (A549 NSCLC) | GI50 (786-0 renal) | TGI (786-0 renal) | GI50 (RPMI-8226 leukemia) | TGI (RPMI-8226 leukemia) | GI50 (OVCAR-4 ovarian) | TGI (OVCAR-4 ovarian)
C=CC(=O)Nc1ccc(Nc2nccc(-c3ccc(N4CCCC4)c(C#N)c3)n2)cc1 | > 25 µM | > 25 µM | > 25 µM | > 25 µM | 4.88 | > 25 µM | > 25 | > 25 µM | 4 µM | 13.1 µM | 15.8 | > 25 µM | 11 | > 25 µM | 0.663 µM | 3.87 µM | 10.1 µM | > 25 µM | 20.1 µM | > 25 µM
O=C(CC1=Nc2nnc(-c3nnc4n3C(=O)C(CC(=O)c3cccnc3)=N4)n2C1=O)c1cccnc1 | – | > 100 µM | – | > 100 µM | – | > 100 µM | – | > 100 µM | – | > 100 µM | – | > 100 µM | – | > 100 µM | – | > 100 µM | – | > 100 µM | – | > 100 µM
N#C/C(=C\c1ccccc1O)C(N)=O | – | > 100 µM | – | > 100 µM | – | 43.3 µM | – | > 100 µM | – | > 100 µM | – | > 100 µM | – | > 100 µM | – | > 100 µM | – | > 100 µM | – | > 100 µM
O=[N+]([O-])c1ccc(Nc2ccccc2-c2ccccc2)c2nonc12 | 18.6 µM | 45.2 µM | 4.44 µM | 18 µM | 17.8 | 51.1 µM | 14 | 40.5 µM | 17.2 µM | 45.3 µM | 14.9 | 36.8 µM | 16.7 | > 86.8 µM | 12.6 µM | 32.6 µM | 6.91 µM | > 100 µM | 9.5 µM | > 100 µM
CC/C(Cc1ccccc1)=C(\c1ccc(OCCN2CCCCCC2)cc1)c1ccc(OC(=O)NCc2ccccc2)cc1 | 1.01 µM | 1.99 µM | 6.38 µM | 13 µM | 1.18 | 3.44 µM | 8.14 | 17.5 µM | 1.44 µM | 5.17 µM | 4.23 | 11.3 µM | 2.48 | 8.64 µM | 1.38 µM | 4.43 µM | 1.16 µM | 2.87 µM | 1.61 µM | 6.03 µM
O=C1c2ccccc2C2(O)Nc3cc(O)ccc3C12O (stereo not drawn) | – | > 100 µM | – | > 100 µM | – | > 100 µM | – | > 100 µM | – | > 100 µM | – | > 100 µM | – | > 100 µM | – | > 100 µM | – | > 100 µM | – | > 100 µM
CC(=O)C1=C(O)C=C2Oc3c(C(=O)/C=C/c4cc(C(F)(F)F)cc(C(F)(F)F)c4)c(O)c(C)c(O)c3[C@]2(C)C1=O | 0.527 µM | 1.75 µM | 0.436 µM | 1.27 µM | 0.401 | 1.14 µM | 2.34 | 5.15 µM | 0.747 µM | 2.96 µM | 0.736 | 4.04 µM | 0.666 | 4.42 µM | 0.602 µM | 2.35 µM | 0.442 µM | 1.28 µM | 0.815 µM | 11.3 µM
CC1=NN(C(=O)c2ccccc2O)C(=O)/C1=C/c1ccc([N+](=O)[O-])cc1 | 7.43 µM | > 88 µM | – | 2.16 µM | 1.08 | – | 0.23 | 7.93 µM and 25.1 µM | 4.7 µM | > 100 µM | 0.444 | > 100 µM | 0.357 | > 100 µM | 0.774 µM | > 100 µM | 0.784 µM | > 100 µM | 0.783 µM | > 100 µM
Cc1ccc(C(=O)O/N=C2/CCCC/C2=C\c2ccccc2)cc1 | – | > 100 µM | – | > 100 µM | – | 45.1 µM | – | > 100 µM | – | 65.3 µM | – | 28.2 µM | – | 39.3 µM | – | > 100 µM | – | > 100 µM | – | > 100 µM
COc1ccc(C#Cc2ccccc2C#CCCCCO)cc1 | 17.6 µM | 33.4 µM | 15.9 µM | 29.8 µM | 23.7 | 44.7 µM | 17.3 | 36.1 µM | 12.2 µM | 24.8 µM | 21.7 | 42.9 µM | 18.2 | 33.7 µM | 22.8 µM | 45.9 µM | 27.3 µM | 72.7 µM | 11.2 µM | 28.1 µM
CCOc1ccccc1NC(=O)CCC(=O)OC | – | > 100 µM | – | > 100 µM | – | > 78.8 µM | – | > 100 µM | – | > 100 µM | – | > 100 µM | – | > 100 µM | – | > 100 µM | – | > 71.3 µM | – | > 100 µM
Cc1ccc(C)c(NC(=O)C(=O)CC(=O)C2CCOC2=O)c1 (stereo not drawn) | – | > 100 µM | – | > 100 µM | – | > 100 µM | – | > 100 µM | – | > 100 µM | – | > 100 µM | – | > 100 µM | – | > 100 µM | – | > 100 µM | – | > 100 µM
C=C(Cn1c(=O)c2ccccc2c2ccccc21)c1ccc(C(=O)Nc2ccccc2N)cc1 | 45.1 µM | > 100 µM | 24.1 µM | > 100 µM | 0.188 | – | 16.7 | > 100 µM | > 37.8 µM | > 100 µM | 12.6 | > 100 µM | > 48.3 | > 100 µM | 5.95 µM | > 100 µM | 0.765 µM | 4.36 µM | 5.22 µM | > 100 µM
COC(=O)[C@@H](NC(=O)NC(=O)NC(=O)CI)C(C)C | 1.97 µM | 4.01 µM | 14.4 µM | 29.9 µM | 1.7 | 3.86 µM | 16.2 | 38.4 µM | 1.88 µM | 3.85 µM | 15.1 | 32.7 µM | 22.4 | 41.5 µM | 11.4 µM | 23.5 µM | 4.83 µM | 26.1 µM | 3.19 µM | 13.7 µM
COc1cccc2c1C(=O)c1c(O)c3c(c(O)c1C2=O)CC(O)(C(C)=O)CC3OC1CC(N)C(O)C(C)O1 (stereo not drawn) | 0.114 mg/L | 0.334 mg/L | 0.0157 mg/L | 0.0734 mg/L | – | 0.0356 mg/L | – | 0.155 mg/L | 0.104 mg/L | 0.607 mg/L | – | 0.262 mg/L | – | 1.85 mg/L | 0.0177 mg/L | 0.0836 mg/L | 0.0159 mg/L | 0.165 mg/L | 0.0742 mg/L | 0.692 mg/L
